Test results published in PMC8797470, “Disruption of the pentraxin 3/CD44 interaction as an efficient therapy for triple‐negative breast cancers” (Clinical and Translational Medicine, 2022).
Ends that are not written are not given here.

Legend:
PTX3/CD44 interaction = target: T1, PTX3/CD44 interaction (Homo sapiens, UniProt P16070); assay: Competitive binding ELISA of HRP-conjugated PTX3 to immobilised CD44; conditions: biotinylated peptide 2 h, then 5 μg/ml HRP-conjugated PTX3 1 h at RT
T1 construct: purchased Sino Biological Inc. (CD44) 12211-H08H
Description: Plate wells (9018; Corning Costar) were coated with 10 μg/ml of CD44 (12211‐H08H; Sino Biological Inc.) in PBS (pH 7.2) and then blocking for 1 h with the blocking buffer including 3% milk in PBS. For the stability binding experiments, the PTX3‐devired biotinylated peptides were pre‐incubated in serum for 1, 2, 4 or 6 h. For the binding experiments, the horseradish peroxidase (HRP)‐conjugated recombinant PTX3, PTX3/N, PTX3/C and PTX3NA or PTX3‐devired biotinylated peptides AD9, GR9, P2rdAD9 and P12rdGR9 (32310; LEADGENE) was responded in the well for 2 h. For the peptide of competition experiments, the PTX3‐devired biotinylated peptides RI37 and GI40 were diluted at the indicated concentration in PBS. After 2 h, PBS washed three times and then incubated with 5 μg/ml HRP‐conjugated PTX3 in PBS for 1 h at room temperature (RT). For the antibody competition experiments, Ab‐10 and Ab‐49 were incubated with 5 μg/ml HRP‐conjugated PTX3 in PBS for 2 h at RT. After incubation, the mixtures was responded in the well for 1 h at RT and then PBS washed three times, tetramethyl benzidine (TMB) was used to detect the bound HRP conjugate. After 15 min, the peroxidase reaction was stopped by adding 0.1 M H2SO4. Next, ELISA plate reader was used to detect the optical densities at 450 nm.

[1] = test system: RANKL, MMP2, NANOG and TWIST2 transcription in MDA-MB-231 cells; assay: Real-time quantitative PCR of PTX3-induced genes; format: cell-based, human; conditions: MDA-MB-231 cells, with PTX3 treatment
Source text: TRIsure RNA extraction reagent (Invitrogen) extracted total RNA. SuperScript™ III Reverse Transcriptase (Invitrogen) was used to synthesis cDNA. Next, SensiFAST™ SYBR (BIOLINE) was applied to perform real‐time quantitative PCR (Q‐PCR) assay. CFX connect Real‐Time PCR System (BIO‐RAD) executed real‐time fluorescence monitoring and the melting curve analysis according to the manufacturer's recommendations. The following pairs of specific primers—human CEBPD (F): 5′‐[…]‐3′ and CEBPD (R): 5′‐[…]‐3′, human PTX3 (F): 5′‐ […]‐3′ and PTX3 (R): 5′‐ […]‐3′, human MMP2 (F): 5′‐ […]‐3′ and MMP2 (R): 5′‐ […]‐3′, human RANKL (F): 5′‐ AGAGC GCAGATGGATCCTAA‐3′ and RANKL (R): 5′‐ TTCCTTTTGCACAGC TCCTT‐3′, human TWIST2 (F): 5′‐[…]‐3′ and TWIST2 (R): 5′‐[…]‐3′, human NANOG (F): 5′‐[…]‐3′ and NANOG (R): 5′‐ […]‐3′, human GAPDH (F): 5′‐ […]‐3′ and GAPDH (R): 5′‐ […]‐3′.

MDA-MB-231 cells = assay: Sphere formation assay; format: cell-based, human; conditions: MDA-MB-231 cells, with PTX3 treatment
Description: Note that 5 × 10^3 MDA‐MB‐231 cells were seeded in ultralow attachment plates (Corning) per well. Then, cultured in conditional medium containing the treatment of TGF‐β1, PTX3, PTX3NA, RI37, GI40, IgG1κ, PTX3 Ab‐10 or PTX3 Ab‐49 and the DMEM/F12 (Gibco) added with B27 (Invitrogen), 10 ng/ml bFGF (Peprotech) and 20 ng/ml EGF (Abcam). Number of spheres was calculated by microscope after 2 weeks.

[2] = test system: mCherry fluorescent-expressing MDA-MB-231 cells; assay: Orthotopic xenograft of mCherry MDA-MB-231 cells in NOD-SCID mice; format: in vivo, mouse; conditions: 40 mg/kg peptide every day, intraperitoneal
Source text: (§1) For the animal model, MB‐Luc2 cells were mixed with human BCAFs xenografts: 1 × 10^5 MB‐Luc2 were mixed with either 1 × 10^5 BCAFs carrying a control knockdown vector (shCtl‐BCAFs), or 1 × 10^5 BCAFs carrying a CEBPD knockdown vector (shCD‐BCAFs), or 1 × 10^5 BCAFs carrying a PTX3 knockdown vector (shP‐BCAFs). The cell mixtures were inoculated into the mammary fat pads of NOD‐SCID mice. In peptide treatment experiments, NOD‐SCID mice were orthotopically inoculated with 1 × 10^6 mCherry fluorescent‐expressing MDA‐MB‐231 cells into the mammary fat pad. Similarly, 5 × 10^5 mCherry fluorescent‐expressing 4T1 cells were orthotopically inoculated into BALB/c mice in the mammary fat pad. Once tumours reached to the mean of 50 mm^3, the mice were administered 40 mg/kg of peptides RI37, GI40, P2rdAD9 or P12rdGR9 every day by intraperitoneal injection. For paclitaxel treatment, 30 mg/kg of paclitaxel was administered to the experimental mice once a week. […] The images of in vivo bioluminescence and metastasis quantification of the lung and brain were analysed by a Xenogen IVISR Spectrum Noninvasive Quantitative Molecular Imaging System. […] After that, tumour volume was mathematically determined by using the standard formula: […], where l represents the length and w represents the width of the tumour. […] After, the number of nodules on the lung surface was measured. […]

[3] = test system: mCherry fluorescent-expressing 4T1 cells; assay: Orthotopic allograft of mCherry 4T1 cells in BALB/c mice; format: in vivo, mouse; conditions: 40 mg/kg peptide every day, intraperitoneal
Source text: as §1

T1 sequence (P16070 21-220 limits assumed): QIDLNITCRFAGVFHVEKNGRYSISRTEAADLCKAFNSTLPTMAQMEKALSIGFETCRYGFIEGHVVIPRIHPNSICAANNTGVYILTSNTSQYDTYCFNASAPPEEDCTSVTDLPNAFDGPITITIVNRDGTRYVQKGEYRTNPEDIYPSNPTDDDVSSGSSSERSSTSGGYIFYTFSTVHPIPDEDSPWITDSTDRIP

“GI40: peptide, PTX3 amino acids 320–359 (GGGFDETLAFSGRLTGFNIWDSVLSNEEIRETGGAESCHI; also: biotin, position not given here)” was tested, and the “binding of PTX3 and CD44 in competition with peptide” value (PTX3/CD44 interaction) was “attenuated”, the “PTX3-induced transcription of RANKL, MMP2, NANOG and TWIST2” value [1] was “suppressed” and the “PTX3-induced sphere-forming ability (stemness)” value (MDA-MB-231 cells) was “suppressed”. The “tumour growth and metastasis” value [2] was “suppressed” and the “tumour growth and metastasis” value [3] was “suppressed”.
“RI37: peptide, PTX3 amino acids 200–236 (RPMRLESFSACIWVKATDVLNKTILFSYGTKRNPYEI; also: biotin, position not given here)” was tested, and the “binding of PTX3 and CD44 in competition with peptide” value (PTX3/CD44 interaction) was “attenuated”, the “PTX3-induced transcription of RANKL, MMP2, NANOG and TWIST2” value [1] was “suppressed” and the “PTX3-induced sphere-forming ability (stemness)” value (MDA-MB-231 cells) was “suppressed”. For the same substance, the “tumour growth and metastasis” value [2] was “suppressed” and the “tumour growth and metastasis” value [3] was “suppressed”.
